In ChEMBL document CHEMBL5291721, “A preclinical secondary pharmacology resource illuminates target-adverse drug reaction associations of marketed drugs” (Nat Commun, 2023):

Tests used:
[1] = biological target: T1, 5-hydroxytryptamine receptor 1A (Homo sapiens, UniProt P08908)
T1 sequence (P08908 whole entry): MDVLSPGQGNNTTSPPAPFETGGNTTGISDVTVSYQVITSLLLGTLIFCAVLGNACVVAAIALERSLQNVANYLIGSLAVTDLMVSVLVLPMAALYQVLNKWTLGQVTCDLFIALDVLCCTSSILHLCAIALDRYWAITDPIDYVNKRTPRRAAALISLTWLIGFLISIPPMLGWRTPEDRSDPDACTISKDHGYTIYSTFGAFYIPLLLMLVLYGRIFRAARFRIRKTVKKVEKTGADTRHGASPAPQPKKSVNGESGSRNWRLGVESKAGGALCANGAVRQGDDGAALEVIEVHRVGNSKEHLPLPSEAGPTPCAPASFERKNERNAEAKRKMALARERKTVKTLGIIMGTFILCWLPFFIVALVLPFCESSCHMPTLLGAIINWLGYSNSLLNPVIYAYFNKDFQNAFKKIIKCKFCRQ

[2] = biological target: T2, Alpha-1A adrenergic receptor (Homo sapiens, UniProt P35348)
T2 sequence (P35348 whole entry): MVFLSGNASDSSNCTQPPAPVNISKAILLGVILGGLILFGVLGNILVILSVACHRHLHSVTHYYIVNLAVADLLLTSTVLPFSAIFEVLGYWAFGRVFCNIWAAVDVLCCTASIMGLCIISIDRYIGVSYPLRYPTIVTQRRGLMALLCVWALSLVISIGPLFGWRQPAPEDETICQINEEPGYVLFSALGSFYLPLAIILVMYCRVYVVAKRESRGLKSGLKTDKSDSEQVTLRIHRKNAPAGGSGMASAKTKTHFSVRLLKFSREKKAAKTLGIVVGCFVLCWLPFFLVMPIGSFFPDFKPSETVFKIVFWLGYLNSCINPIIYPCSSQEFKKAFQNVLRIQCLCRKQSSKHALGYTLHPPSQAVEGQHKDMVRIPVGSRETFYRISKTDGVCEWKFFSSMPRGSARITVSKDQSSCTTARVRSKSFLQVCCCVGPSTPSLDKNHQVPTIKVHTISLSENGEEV

[3] = biological target: T3, 5-hydroxytryptamine receptor 2B (Homo sapiens, UniProt P41595); type: functional, cell-based
T3 sequence (P41595 whole entry): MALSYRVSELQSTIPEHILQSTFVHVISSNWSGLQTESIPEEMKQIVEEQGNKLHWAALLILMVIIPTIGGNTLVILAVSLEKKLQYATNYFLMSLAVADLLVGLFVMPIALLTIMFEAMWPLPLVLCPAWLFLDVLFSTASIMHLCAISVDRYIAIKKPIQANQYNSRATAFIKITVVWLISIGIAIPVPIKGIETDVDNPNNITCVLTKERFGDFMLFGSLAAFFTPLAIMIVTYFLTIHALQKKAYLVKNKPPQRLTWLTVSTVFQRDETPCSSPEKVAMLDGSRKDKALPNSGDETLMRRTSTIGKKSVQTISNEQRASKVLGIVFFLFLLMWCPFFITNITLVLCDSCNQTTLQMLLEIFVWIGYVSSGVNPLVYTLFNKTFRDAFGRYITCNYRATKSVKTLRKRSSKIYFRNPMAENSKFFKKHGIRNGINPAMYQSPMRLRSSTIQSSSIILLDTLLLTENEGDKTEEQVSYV

[4] = biological target: T1, 5-hydroxytryptamine receptor 1A; type: functional, cell-based
[5] = biological target: D(1A) dopamine receptor (Homo sapiens, UniProt P21728)
D(1A) dopamine receptor, sequence (P21728 whole entry): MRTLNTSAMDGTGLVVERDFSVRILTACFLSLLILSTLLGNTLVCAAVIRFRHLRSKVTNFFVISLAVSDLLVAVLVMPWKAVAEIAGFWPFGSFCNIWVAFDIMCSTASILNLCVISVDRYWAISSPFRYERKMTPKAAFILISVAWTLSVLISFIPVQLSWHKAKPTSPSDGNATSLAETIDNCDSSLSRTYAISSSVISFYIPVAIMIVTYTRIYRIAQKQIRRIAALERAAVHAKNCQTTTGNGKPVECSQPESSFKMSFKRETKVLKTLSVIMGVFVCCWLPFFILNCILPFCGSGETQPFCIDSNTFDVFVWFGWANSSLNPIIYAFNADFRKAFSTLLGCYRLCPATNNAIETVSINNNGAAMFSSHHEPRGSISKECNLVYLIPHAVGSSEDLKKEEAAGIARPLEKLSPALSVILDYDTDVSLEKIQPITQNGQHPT

[6] = biological target: T4, Progesterone receptor (Homo sapiens, UniProt P06401); type: functional
T4 sequence (P06401 whole entry): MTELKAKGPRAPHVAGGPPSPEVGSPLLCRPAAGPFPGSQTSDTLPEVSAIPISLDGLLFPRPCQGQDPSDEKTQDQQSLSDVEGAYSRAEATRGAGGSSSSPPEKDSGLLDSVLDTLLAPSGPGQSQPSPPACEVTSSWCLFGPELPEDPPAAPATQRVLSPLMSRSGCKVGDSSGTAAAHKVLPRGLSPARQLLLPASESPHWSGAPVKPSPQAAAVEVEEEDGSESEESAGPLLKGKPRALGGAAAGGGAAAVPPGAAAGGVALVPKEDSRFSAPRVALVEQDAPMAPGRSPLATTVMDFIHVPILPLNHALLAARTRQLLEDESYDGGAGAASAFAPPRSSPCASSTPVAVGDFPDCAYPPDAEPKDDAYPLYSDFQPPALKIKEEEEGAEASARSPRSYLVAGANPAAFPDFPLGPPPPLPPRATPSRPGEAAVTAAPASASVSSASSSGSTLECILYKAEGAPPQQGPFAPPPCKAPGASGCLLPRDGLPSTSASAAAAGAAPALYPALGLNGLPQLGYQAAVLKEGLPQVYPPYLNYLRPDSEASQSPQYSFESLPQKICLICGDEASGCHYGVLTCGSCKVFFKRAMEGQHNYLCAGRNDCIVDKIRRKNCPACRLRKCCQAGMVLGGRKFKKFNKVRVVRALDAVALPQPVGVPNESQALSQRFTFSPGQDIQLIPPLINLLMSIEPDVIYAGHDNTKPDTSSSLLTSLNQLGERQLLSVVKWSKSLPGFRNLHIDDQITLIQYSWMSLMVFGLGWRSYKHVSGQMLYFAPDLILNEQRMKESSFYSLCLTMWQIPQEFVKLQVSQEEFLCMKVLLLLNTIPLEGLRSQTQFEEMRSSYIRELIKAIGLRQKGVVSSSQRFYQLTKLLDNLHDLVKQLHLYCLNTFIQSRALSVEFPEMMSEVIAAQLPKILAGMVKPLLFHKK

[7] = biological target: Histamine H3 receptor (Homo sapiens, UniProt Q9Y5N1)
Histamine H3 receptor, sequence (Q9Y5N1 whole entry): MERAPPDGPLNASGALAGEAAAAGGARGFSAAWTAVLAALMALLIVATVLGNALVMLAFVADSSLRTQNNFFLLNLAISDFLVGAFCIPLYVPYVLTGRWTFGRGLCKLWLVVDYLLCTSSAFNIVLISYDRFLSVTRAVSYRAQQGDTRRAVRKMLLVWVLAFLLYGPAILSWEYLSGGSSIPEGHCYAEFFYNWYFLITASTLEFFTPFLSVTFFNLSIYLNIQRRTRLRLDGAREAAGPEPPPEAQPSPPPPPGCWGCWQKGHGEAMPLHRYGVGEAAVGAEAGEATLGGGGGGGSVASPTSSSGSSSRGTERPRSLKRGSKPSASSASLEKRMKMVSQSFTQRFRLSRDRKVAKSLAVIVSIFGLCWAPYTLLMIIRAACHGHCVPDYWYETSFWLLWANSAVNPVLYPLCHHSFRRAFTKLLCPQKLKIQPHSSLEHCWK

[8] = biological target: T3, 5-hydroxytryptamine receptor 2B; type: functional, cell-based; remark: listed apart in the source
[9] = biological target: Sodium-dependent dopamine transporter (Homo sapiens, UniProt Q01959)
Sodium-dependent dopamine transporter, sequence (Q01959 whole entry): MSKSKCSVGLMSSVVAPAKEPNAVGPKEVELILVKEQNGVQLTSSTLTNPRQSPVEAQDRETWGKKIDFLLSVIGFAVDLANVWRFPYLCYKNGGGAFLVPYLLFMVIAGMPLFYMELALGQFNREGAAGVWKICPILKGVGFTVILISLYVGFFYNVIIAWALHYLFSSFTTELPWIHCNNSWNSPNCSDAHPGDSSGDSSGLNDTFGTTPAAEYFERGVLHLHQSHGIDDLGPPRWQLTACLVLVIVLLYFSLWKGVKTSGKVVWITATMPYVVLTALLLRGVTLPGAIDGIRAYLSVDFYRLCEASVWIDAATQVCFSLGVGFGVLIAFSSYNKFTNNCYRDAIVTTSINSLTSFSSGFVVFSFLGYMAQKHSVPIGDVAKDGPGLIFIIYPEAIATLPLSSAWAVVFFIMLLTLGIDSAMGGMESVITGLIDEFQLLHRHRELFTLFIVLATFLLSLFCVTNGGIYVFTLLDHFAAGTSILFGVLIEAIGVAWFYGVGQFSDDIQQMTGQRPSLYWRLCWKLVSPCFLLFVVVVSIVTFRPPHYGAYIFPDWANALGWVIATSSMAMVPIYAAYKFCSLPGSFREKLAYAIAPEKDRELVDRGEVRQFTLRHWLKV

[10] = biological target: T2, Alpha-1A adrenergic receptor; type: functional, cell-based
[11] = biological target: T5, Adenosine receptor A3 (Homo sapiens, UniProt P0DMS8)
T5 sequence (P0DMS8 whole entry): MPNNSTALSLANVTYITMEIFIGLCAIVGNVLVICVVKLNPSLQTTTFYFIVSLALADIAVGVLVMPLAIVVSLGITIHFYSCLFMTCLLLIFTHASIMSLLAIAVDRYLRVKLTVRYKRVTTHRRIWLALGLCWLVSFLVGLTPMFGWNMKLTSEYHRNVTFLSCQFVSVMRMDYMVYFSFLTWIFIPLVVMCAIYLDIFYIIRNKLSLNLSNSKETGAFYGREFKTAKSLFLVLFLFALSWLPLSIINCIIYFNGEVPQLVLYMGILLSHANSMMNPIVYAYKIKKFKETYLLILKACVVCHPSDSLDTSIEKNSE

[12] = biological target: Glutamate receptor ionotropic, NMDA 1 (Rattus norvegicus, UniProt P35439)
[13] = biological target: Sodium-dependent noradrenaline transporter (Homo sapiens, UniProt P23975)
Sodium-dependent noradrenaline transporter, sequence (P23975 whole entry): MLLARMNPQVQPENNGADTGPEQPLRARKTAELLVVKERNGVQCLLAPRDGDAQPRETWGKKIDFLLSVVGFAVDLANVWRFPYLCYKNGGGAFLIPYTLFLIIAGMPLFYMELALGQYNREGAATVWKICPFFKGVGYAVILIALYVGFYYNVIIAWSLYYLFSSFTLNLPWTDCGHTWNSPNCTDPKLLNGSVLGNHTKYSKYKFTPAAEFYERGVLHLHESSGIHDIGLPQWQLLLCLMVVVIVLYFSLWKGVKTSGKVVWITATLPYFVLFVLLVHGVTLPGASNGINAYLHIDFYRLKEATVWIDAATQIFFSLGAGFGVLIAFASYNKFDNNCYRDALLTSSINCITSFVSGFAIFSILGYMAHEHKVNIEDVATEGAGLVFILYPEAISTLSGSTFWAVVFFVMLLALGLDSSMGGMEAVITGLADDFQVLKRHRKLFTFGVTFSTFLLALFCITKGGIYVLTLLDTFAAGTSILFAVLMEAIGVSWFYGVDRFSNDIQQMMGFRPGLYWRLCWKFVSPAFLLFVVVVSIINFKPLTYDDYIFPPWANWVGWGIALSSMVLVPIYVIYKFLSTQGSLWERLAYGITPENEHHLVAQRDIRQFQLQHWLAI
Further: assay procedure not described here.

Compound	AC50 [1] [µM]	AC50 [2] [µM]	AC50 [3] [µM]	AC50 [4] [µM]	AC50 [5] [µM]	AC50 [6] [µM]	AC50 [7] [µM]	AC50 [8] [µM]	AC50 [9] [µM]	AC50 [10] [µM]	AC50 [11] [µM]	AC50 [12] [µM]	AC50 [13] [µM]
Cc1cccc(Nc2ccccc2C(=O)O)c1C [MEFENAMIC ACID]	> 30	> 10	> 30	> 10	> 30	> 10	> 10	> 10	> 30	> 30	> 30	> 10	> 30
CS(=O)(=O)c1ccc(C2=C(c3ccccc3)C(=O)OC2)cc1 [ROFECOXIB]	> 30	> 10	> 30	35	> 30	–	> 10	> 30	> 30	> 30	18.5	> 10	> 30
Cc1cn([C@H]2C[C@H](N=[N+]=[N-])[C@@H](CO)O2)c(=O)[nH]c1=O [ZIDOVUDINE]	> 30	> 10	> 30	> 10	> 30	–	> 10	> 10	> 30	> 30	> 30	> 10	> 30
CC(C)C[C@H]1C(=O)N2CCC[C@H]2[C@]2(O)O[C@](NC(=O)[C@@H]3C=C4c5cccc6[nH]c(Br)c(c56)C[C@H]4N(C)C3)(C(C)C)C(=O)N12 [BROMOCRIPTINE]	0.003	0.197	> 30	0.17	2.37	> 30	> 30	0.538	> 30	1.07	1.92	> 10	> 30
Cc1cn([C@H]2C=C[C@@H](CO)O2)c(=O)[nH]c1=O [STAVUDINE]	> 30	29.9	> 30	> 10	> 30	–	> 30	> 10	> 30	> 30	> 30	> 10	> 30
NCC(CC(=O)O)c1ccc(Cl)cc1 (configuration not stated) [BACLOFEN]	> 30	> 10	> 30	> 30	> 30	> 30	> 30	> 30	> 30	> 30	> 30	> 10	> 30
CO[C@H]1C[C@@H]2CC[C@@H](C)[C@@](O)(O2)C(=O)C(=O)N2CCCC[C@H]2C(=O)O[C@H]([C@H](C)C[C@@H]2CC[C@@H](O)[C@H](OC)C2)CC(=O)[C@H](C)/C=C(\C)[C@@H](O)[C@@H](OC)C(=O)[C@H](C)C[C@H](C)/C=C/C=C/C=C/1C [SIROLIMUS]	> 30	0.156	> 30	> 10	> 30	–	> 10	> 10	> 30	> 30	26.4	> 10	> 30
